Experimental data published in patent US20040102423A1, “Spironolactone and angiotensin II antagonist combination therapy for treatment of congestive heart failure” (G.D. Searle & Co., priority 1995, published 2004).

Legend:
[1] = target: angiotensin II AT1 receptor; experiment: Assay A: Angiotensin II binding activity, rat uterine membrane preparation, 125I-AII displacement
Experimental: Assay A: Antiotensin II Binding Activity
Compounds of the invention were tested for ability to bind to the smooth muscle angiotensin II receptor using a rat uterine membrane preparation. […] Rat uterine membranes were prepared from fresh tissue. All procedures were carried out at 4° C. Uteri were stripped of fat and homogenized in phosphate-buffered saline at pH 7.4 containing 5 mM EDTA. The homogenate was centrifuged at 1500×g for 20 min., and the supernatant was recentrifuged at 100,000×g for 60 min. The pellet was resuspended in buffer consisting of 2 mM EDTA and 50 mM Tris-HCl (pH 7.5) to a final protein concentration of 4 mg/ml. […] The reaction was initiated by the addition of membrane protein and the mixture was incubated at 25° C. for 60 min. The incubation was terminated with ice-cold 50 mM Tris-HCl (pH 7.5) and the mixture was filtered to separate membrane-bound labelled peptide from the free ligand. The incubation tube and filter were washed with ice-cold buffer. Filters were assayed for radioactivity in a Micromedic gamma counter. Nonspecific binding was defined as binding in the presence of 10 μM of unlabelled AII. Specific binding was calculated as total binding minus nonspecific binding. […] Binding data were analyzed by a nonlinear least-squares curve fitting program.

rabbit aortic rings = experiment: Assay B: In vitro vascular smooth muscle response for AII (antagonist activity, pA2); type: cell-based; conditions: for Kb: Oryctolagus cuniculus, two values in a cell = two determinations
Experimental: Assay B: In Vitro Vascular Smooth Muscle-Response for AII
The compounds of the invention were tested for antagonist activity in rabbit aortic rings. Male New Zealand white rabbits (2-2.5 kg) were sacrificed using an overdose of pentobarbital and exsanguinated via the carotid arteries. The thoracic aorta was removed, cleaned of adherent fat and connective tissue and then cut into 3-mm ring segments. The endothelium was removed from the rings by gently sliding a rolled-up piece of filter paper into the vessel lumen. The rings were then mounted in a water-jacketed tissue bath, maintained at 37° C., between moveable and fixed ends of a stainless steel wire with the moveable end attached to an FT03 Grass transducer coupled to a Model 7D Grass Polygraph for recording isometric force responses. The bath was filled with 20 ml of oxygenated (95% oxygen/5% carbon dioxide) Krebs solution of the following composition (mM): 130 NaCl, 15 NaHCO3, […], 1.2 NaH2PO4, 1.2 MgSO4, 2.5 CaCl2, and 11.4 glucose. The preparations were equilibrated for one hour before approximately one gram of passive tension was placed on the rings. Angiotensin II concentration-response curves were then recorded (3×10^−10 to 1×10^−5 M). Each concentration of AII was allowed to elicit its maximal contraction, and then AII was washed out repeatedly for 30 minutes before rechallenging with a higher concentration of AII. Aorta rings were exposed to the test antagonist at 10^−5 M for 5 minutes before challenging with AII. Adjacent segments of the same aorta ring were used for all concentration-response curves in the presence or absence of the test antagonist. The effectiveness of the test compound was expressed in terms of pA2 values and were calculated according to H. O. Schild [Br. J. Pharmacol. Chemother., 2, 189-206 (1947)]. The pA2 value is […] which increases the EC50 value for AII by a factor of two. Each test antagonist was evaluated in aorta rings from two rabbits.

IC50 [1] [nM] | SMILES | Kb (rabbit aortic rings) [nM] | Assay B pA2 (result given as symbol) (rabbit aortic rings)
34 | CCCCc1cn(CCCC)c(=O)n1Cc1ccc(-c2ncccc2-c2nnn[nH]2)cc1 [Compound 235] | 72.4 | –
410 | CCCCn1nc(/C=C/c2cccs2)nc1Cc1ccc(-c2ccccc2-c2nnn[nH]2)nc1 [Compound 165] | 126 | –
0.052 | CCCCc1cn(CCCC)c(=O)n1Cc1ccc(-c2ccccc2-c2nnn[nH]2)cc1 [Compound 143] | 20 | –
16 | CCCCc1nc(CCCC)n(Cc2ccc(-c3ccccc3C(=O)NN)cc2)n1 [Compound 15] | 4.9 | –
101 | CCCCc1nc(CCCNC(=O)OC(C)(C)C)n(Cc2ccc(-c3ccccc3-c3nnn[nH]3)cc2)n1 [Compound 78] | 100 | –
21 | CCCCc1nc(CN)n(Cc2ccc(-c3ccccc3-c3nnn[nH]3)cc2)n1 [Compound 47] | 14.1 | –
4 | CCCCc1nc(Cl)nn1Cc1ccc(-c2ccccc2C(=O)O)cc1 [Compound 17] | 2.29 | –
160 | CCCc1nc(CCC)n(Cc2ccc(-c3ccccc3-c3nnn[nH]3)nc2)n1 [Compound 257] | 234 | –
370 | CCCCCc1nc(Cc2ccc(-c3ccccc3-c3nnn[nH]3)nc2)n(CCCC)n1 [Compound 167] | 83.2 | –
21 | CCCCCCn1nc(CCCC)n(Cc2ccc(-c3ccccc3-c3nn[nH]n3)cc2)c1=O [Compound 96] | 10 | –
420 | CCCCc1nc(Cc2ccc(-c3ccccc3-c3nnn[nH]3)nc2)n(CC(CC)CC)n1 [Compound 168] | 20.4 | –
100 | CCCCc1nc(CNC(=O)CCC(NC(C)=O)C(=O)OC(C)(C)C)nn1Cc1ccc(-c2ccccc2-c2nnn[nH]2)cc1 (stereo not drawn) [Compound 52] | 7.24 | –
0.27 | CCCCc1nc(Cc2ccc(-c3ccccc3-c3nnn[nH]3)cc2)n(CCCC)n1 [Compound 139] | 501 | –
66 | CCCCc1nn(CC(=O)OC(C)(C)C)c(=O)n1Cc1ccc(-c2ccccc2-c2nn[nH]n2)cc1 [Compound 95] | 6.31 | –
4.4 | CCCCc1nc(CNC(=O)OC(C)(C)C)n(Cc2ccc(-c3ccccc3-c3nnn[nH]3)cc2)n1 [Compound 45] | 3.89 | –
25 | CCCCc1nc(C(F)(F)C(F)(F)F)nn1Cc1ccc(-c2ccccc2-c2nnn[nH]2)cc1 [Compound 80] | 7.94 | –
89 | CCCCc1cn(-c2ccccc2Cl)c(=O)n1Cc1ccc(-c2ccccc2-c2nnn[nH]2)nc1 [Compound 227] | 28.2 | –
1400 | CCCCc1nc(CCc2ccccc2)n(Cc2ccc(-c3ccccc3-c3nnn[nH]3)cc2)n1 [Compound 36] | 1200 | –
5.6 | CCCCc1nn(CCCC)c(=O)n1Cc1ccc(-c2ccccc2-c2nnn[nH]2)cc1 [Compound 90] | 1 | –
5400 | CCCCc1nc(C2CCCCC2)n(Cc2ccc(-c3ccccc3-c3nnn[nH]3)cc2)n1 [Compound 76] | 3020 | –
54 | CCCCc1nc(CC)nn1Cc1ccc(-c2ccccc2-c2nnn[nH]2)cc1 [Compound 50] | 19.5 | –
18 | CCCCc1nn(CCCC)c(=O)n1Cc1ccc(-c2ccccc2C(=O)O)cc1 [Compound 89] | 12.6 | –
7.2 | CCCCc1nc(CCCC)n(Cc2ccc(-c3ccccc3-c3nnn[nH]3)cc2)n1 [Compound 14] | 1.45 | –
15000 | CCCCc1nc(C2CCCCC2)nn1Cc1ccc(-c2ccccc2-c2nnn[nH]2)cc1 [Compound 77] | 1700 | –

IC50 [1] [nM] | SMILES | Kb (rabbit aortic rings) [nM] | Assay B pA2 (result given as symbol) (rabbit aortic rings)
6 | CCCCc1nc(CCCC)n(Cc2ccc(-c3ccccc3C(=O)OC)cc2)n1 [Compound 12] | 2.19 | –
270 | CCCCc1nc(-c2ccccc2Cl)n(Cc2ccc(-c3ccccc3-c3nnn[nH]3)nc2)n1 [Compound 279] | 8.71 | –
35 | CCCCc1nn(CCCc2ccccc2)c(=O)n1Cc1ccc(-c2ccccc2-c2nn[nH]n2)cc1 [Compound 92] | 12.6 | –
88 | CCCn1nc(C(F)(F)CC)nc1Cc1ccc(-c2ccccc2-c2nnn[nH]2)nc1 [Compound 178] | 28.8 | –
91 | CCCCc1nc(CC)n(Cc2ccc(-c3ccccc3C(=O)O)cc2)n1 [Compound 87] | 15.8 | –
22 | CCCCc1nn(CC(=O)O)c(=O)n1Cc1ccc(-c2ccccc2-c2nn[nH]n2)cc1 [Compound 98] | 7.94 | –
3100 | CCCCc1nc(CCC2CCCCC2)nn1Cc1ccc(-c2ccccc2-c2nnn[nH]2)cc1 [Compound 54] | 955 | –
150 | CCCCc1cn(-c2c(C)cc(C(C)(C)C)cc2C)c(=O)n1Cc1ccc(-c2ccccc2-c2nnn[nH]2)nc1 [Compound 244] | 67.6 | –
310 | CCCCn1nc(C(F)(F)CC)nc1Cc1ccc(-c2ccccc2-c2nnn[nH]2)nc1 [Compound 179] | 214 | –
3100 | CCCCc1nc(C23CC4CC(CC(C4)C2)C3)nn1Cc1ccc(-c2ccccc2-c2nnn[nH]2)cc1 [Compound 67] | 1320 | –
120 | CCCCc1nc(CC(OCC)OCC)nn1Cc1ccc(-c2ccccc2-c2nnn[nH]2)cc1 [Compound 49] | 87.1 | –
8.7 | CCCCc1nc(CC)n(Cc2ccc(-c3ccccc3-c3nnn[nH]3)cc2)n1 [Compound 51] | 4.07 | –
12000 | CCCCc1nc(CF)n(Cc2ccc(-c3ccccc3-c3nnn[nH]3)cc2)n1 [Compound 71] | – | * (Antagonist Activity not observed up to 10 μM of test compound.)
130 | CCCCc1nc(Cc2ccc(-c3ccccc3C(=O)O)cc2)nn1CCCC [Compound 138] | 6.31 | –
9 | CCCCc1nc(CC)nn1Cc1ccc(-c2ccccc2C(=O)O)cc1 [Compound 86] | 15.8 | –
83 | CCCCc1nc(CC23CC4CC(CC(C4)C2)C3)n(Cc2ccc(-c3ccccc3-c3nnn[nH]3)cc2)n1 [Compound 72] | 776 | –
8.7 | CCCCc1nc(CC2CCCCC2)nn1Cc1ccc(-c2ccccc2-c2nnn[nH]2)cc1 [Compound 85] | 1.26 | –
61 | CCCCc1nc(C(=O)O)nn1Cc1ccc(-c2ccccc2-c2nnn[nH]2)cc1 [Compound 63] | 17 | –
36 | CCCCCn1nc(CCCC)n(Cc2ccc(-c3ccccc3-c3nn[nH]n3)cc2)c1=O [Compound 101] | 15.8 | –
23 | CCCCc1ncn(Cc2ccc(-c3ccccc3-c3nnn[nH]3)cc2)n1 [Compound 65] | 14.1 | –
970 | CCCCc1nc(Cl)nn1Cc1ccc(-c2ccccc2-c2nnn[nH]2)cc1 [Compound 18] | 724 | –
290 | CCCCc1nn(C(Cc2ccccc2)C(=O)c2ccccc2)c(=O)n1Cc1ccc(-c2ccccc2-c2nn[nH]n2)cc1 (stereo not drawn) [Compound 105] | 251 | –
160 | CCCCCn1nc(CCCC)nc1Cc1ccc(-c2ccccc2-c2nnn[nH]2)nc1 [Compound 166] | 26.9 | –
65 | CCCCc1nc(CCC2CCCCC2)n(Cc2ccc(-c3ccccc3-c3nnn[nH]3)cc2)n1 [Compound 53] | 27.5 | –
